Assay results published in US20050065118A1, “Organosulfur inhibitors of tyrosine phosphatases” (priority 2001, published 2005).

| SMILES | melting point [°C] |
| --- | --- |
| O=C(O)CCSC(c1cccc(-c2nnc(Nc3ccc(Cl)c(Cl)c3)s2)c1)c1cccc(C(F)(F)F)c1 (stereo not shown) | 140 to 141 |
| Clc1ccc(Nc2nnc(-c3cccc(Oc4ccc(Cl)c(Cl)c4)c3)s2)cc1Cl [Example 153, (3,4-dichlorophenyl)(5-[3-(3,4-dichlorophenoxy)phenyl](1,3,4-thiadiazol-2-yl)}amine] | 189 to 190 |
| CC(=NNc1ccc(C(=O)O)cc1)c1cccc(Nc2nnc(-c3cccc(Oc4cccc(C(F)(F)F)c4)c3)s2)c1 [Example 165, 4-{N′-[1-(3-{5-[3-(3-Trifluoromethyl-phenoxy)-phenyl]-[1,3,4]thiadiazol-2-ylamino}-phenyl)-ethylidene]-hydrazino}-benzoic acid] | 277.5 to 279 |
| O=C(O)c1ccc(CN(c2ccc(Cl)c(Cl)c2)c2nnc(-c3cccc(Oc4cccc(C(F)(F)F)c4)c3)s2)cc1 [Example 157, 4-{[(3,4-dichlorophenyl)(5-{3-[3-(trifluoromethyl)phenoxy]phenyl}-(1,3,4-thiadiazol-2-yl))amino]methyl}benzoic acid] | 114 to 116 |
| COc1ccc(Oc2cccc(-c3nnc(Nc4ccc(Cl)c(Cl)c4)s3)c2)cc1 [Example 150, (3,4-dichlorophenyl)(5-[3-(4-methoxyphenoxy)phenyl](1,3,4-thiadiazol-2-yl)}amine] | 198 to 199 |
| Nc1nnc(-c2cccc(Oc3cccc(COc4ccc(Cl)c(Cl)c4)c3)c2)s1 [Example 158, (3,4-dichlorophenyl)(5-{3-[3-(oxymethyl)phenoxy]phenyl)(1,3,4-thiadiazol-2-yl))amine] | 128 to 130 |
| Clc1ccc(Nc2nnc(-c3cc(OCc4ccccc4)cc(OCc4ccccc4)c3)s2)cc1Cl [Example 160, (3,4-dichlorophenyl){5-[3,5-bis(phenylmethoxy)phenyl](1,3,4-thiadiazol-2-yl)}amine] | 212 to 214 |
| CCOc1cccc(-c2nnc(N(Cc3cccc([N+](=O)[O-])c3)c3ccc(Cl)c(Cl)c3)s2)c1 [Example 147, (3,4-dichlorophenyl)[5-(3-ethoxyphenyl)(1,3,4-thiadiazol-2-yl)][(3-nitrophenyl)methyl]amine] | 114 to 115 |
| Clc1ccc(Nc2nnc(-c3ccc4nonc4c3)s2)cc1Cl [Example 162, (5-benzo[c]1,2,5-oxadiazol-5-yl(1,3,4-thiadiazol-2-yl))(3,4-dichlorophenyl)amine] | 315 to 317 |
| Clc1cc(Cl)cc(Oc2cccc(-c3nnc(Nc4ccc(Cl)c(Cl)c4)s3)c2)c1 [Example 152, (3,4-dichlorophenyl){5-[3-(3,5-dichlorophenoxy)phenyl](1,3,4-thiadiazol-2-yl)}amine] | 242 to 243 |
| CCOC(=O)c1ccc(Nc2nnc(-c3ccc(Oc4ccccc4)cc3)s2)cc1 [Example 123, ethyl 4-{[5-(4-phenoxyphenyl)-1,3,4-thiadiazol-2-yl]amino}benzoate] | 206 to 207 |
| O=C(O)c1ccc(CNc2nnc(-c3cccc(Oc4ccccc4)c3)s2)cc1 [Example 166, 4-({[5-(3-phenoxyphenyl)-1,3,4-thiadiazol-2-yl]amino}methyl)benzoic acid] | 192 to 195 |
| Cc1ccc(Oc2cccc(-c3nnc(Nc4ccc(Cl)c(Cl)c4)s3)c2)cc1 [Example 151, (3,4-dichlorophenyl){5-[3-(4-methylphenoxy)phenyl](1,3,4-thiadiazol-2-yl)}amine] | 210 to 211 |
| O=C(O)CCc1cccc(Oc2cccc(-c3nnc(Nc4ccc(Cl)c(Cl)c4)s3)c2)c1 [Example 9, 3-[3-(3-{5-[(3,4-Dichlorophenyl)amino]-1,3,4-thiadiazol-2-yl}phenoxy)phenyl]propanoic acid] | 194 to 196 |
| Clc1cc(Nc2nnc(-c3ccc4nonc4c3)s2)ccc1Br [Example 122, (5-benzo[3,4-c]1,2,5-oxadiazol-5-yl(1,3,4-thiadiazol-2-yl))(4-bromo-3-chlorophenyl)amine] | 326 to 327 |

Next, values leading:

| melting point [°C] | SMILES |
| --- | --- |
| 166 to 167 | FC(F)(F)Oc1cccc(COc2cccc(-c3nnc(Nc4ccc(Cl)c(Cl)c4)s3)c2)c1 [Example 129, (3,4-dichlorophenyl)[5-(3-{[3-(trifluoromethoxy)phenyl]methoxy}phenyl)(1,3,4-thiadiazol-2-yl)]amine] |
| 185 to 187 | COc1cccc(-c2nnc(Nc3ccc(F)c(Cl)c3)s2)c1 [Example 68, (3-chloro-4-fluorophenyl)[5-(3-methoxyphenyl)(1,3,4-thiadiazol-2-yl)]amine] |
| 183 to 184 | O=C(O)Cc1cccc(Oc2cccc(-c3nnc(Nc4ccc(Cl)c(Cl)c4)s3)c2)c1 [Example 127, 2-[3-(3-{5-[(3,4-dichlorophenyl)amino]-1,3,4-thiadiazol-2-yl}phenoxy)phenyl]acetic acid] |
| 240 to 242 | O=[N+]([O-])c1cccc(-c2nnc(Nc3cccc(Cl)c3Cl)s2)c1 [Example 76, (2,3-dichlorophenyl)[5-(3-nitrophenyl)(1,3,4-thiadiazol-2-yl)]amine] |
| 184 to 185 | O=[N+]([O-])c1ccccc1OCc1nnc(Nc2cccc(Br)c2)s1 [Example 36, (3-Bromophenyl){5-[(2-nitrophenoxy)methyl](1,3,4-thiadiazol-2-yl)}amine] |
| 210.5 to 211.5 | O=[N+]([O-])c1cccc(Oc2cccc(-c3nnc(Nc4ccc(Cl)c(Cl)c4)s3)c2)c1 [Example 126, (3,4-dichlorophenyl){5-[3-(3-nitrophenoxy)phenyl](1,3,4-thiadiazol-2-yl)}amine] |
| 201 to 202 | CCOc1cccc(-c2nnc(Nc3ccc(Br)c(C)c3)s2)c1 [Example 71, (4-bromo-3-methylphenyl)[5(3-ethoxyphenyl)(1,3,4-thiadiazol-2-yl)]amine] |
| 273 to 275 | O=[N+]([O-])c1cccc(-c2nnc(Nc3cccc(Br)c3)s2)c1 [Example 1, N2-(3-bromophenyl)-5-(3-nitrophenyl)-1,3,4-thiadiazol-2-amine] |
| 208 to 209 | COc1ccc(CSc2cccc(Nc3nnc(-c4cccc([N+](=O)[O-])c4)s3)c2)cc1 [Example 41, {3-[(4-Methoxyphenyl)methylthio]phenyl}[5-(3-nitrophenyl)(1,3,4-thiadiazol-2-yl)]amine] |
| 215 to 217 | COc1cccc(-c2nnc(Nc3ccc(Br)c(Cl)c3)s2)c1 [Example 69, (4-bromo-3-chlorophenyl)[5-(3-methoxyphenyl)(1,3,4-thiadiazol-2-yl)]amine] |
| 224 to 225.5 | Oc1ccc(Oc2cccc(-c3nnc(Nc4ccc(Cl)c(Cl)c4)s3)c2)cc1 [Example 128, 4-(3-{-[(3,4-dichlorophenyl)amino]-1,3,4-thiadiazol-2-yl}phenoxy)phenol] |
| 170 to 172 | CCOc1cccc(-c2nnc(Nc3ccc(F)c(Cl)c3)s2)c1 [Example 70, (3-chloro-4-fluorophenyl)[5-(3-ethoxyphenyl)(1,3,4-thiadiazol-2-yl)]amine] |
| 195 to 197 | CCOc1cccc(-c2nnc(Nc3cccc(Br)c3)s2)c1 [Example 74, (3-bromophenyl)[5-(3-ethoxyphenyl)(1,3,4-thiadiazol-2-yl)]amine] |
